Molecular target: T1, collagen I matrix (Bos taurus, UniProt P02453+P02465)
T1 construct: purchased PureCol (product name as printed)
Test: Gradient generation and characterization in the collagen I matrix of the culture chamber (fluorescence detection)
Protocol: Invasive angiogenic sprouting in three dimensions was studied by embedding organs or clusters of cells in a collagen I matrix composed of Ham's F12 medium (Promocell), 6.26 mM NaOH, 20 mM HEPES, 0.117% NaHCO3, 1% Glutamax-I (Gibco) and 1.5 mg/ml collagen I (PureCol). The flow channels were sealed prior to casting of the gel by the insertion of PDMS plugs. These were cut out a little wider than the channels (˜7×5×0.6 mm) to prevent the gel from leaking into the flow channels. The gel volume (20 μl) deposited in the culture chamber was approximately twice the size of the chamber volume to account for shrinkage and to make sure that the when the culture system was assembled the gel would be slightly compressed in order to occupy the entire culture chamber. […] The collagen gel was left to polymerize in a regular cell incubator at 37° C. and 5% CO2 for 2 hours. Organs or cell clusters were deposited into the center of the culture chamber using a Pasteur pipette in the beginning of the polymerization process. The tissue can be carefully positioned with a needle or by tapping the side of the culture chamber. Both organs and cells can be grown in the fluidic culture device in its open configuration with the culture chamber facing upwards for several days by adding cell media to cover the top of the open culture chamber.
Stock solutions of recombinant VEGFA165 (PeproTech), FGF2 (PeproTech) and VEGFC (R&D systems) were stored at −20° C. until further use. […]
Flow in the culture system was generated by connecting two syringes (connected to a syringe pump) to the channel inlets. […] No flow was recorded through the culture chamber when the flow rates in the source and sink channels were kept identical.
The gradient profile was initially characterized by detection of F-VEGFA. […] FIG. 10 illustrates time-lapse series of the central part of the culture chamber (1.7×1.3 mm) as a gradient of F-VEGFA is established; gradient formation in the culture chamber was detected by measuring the fluorescent signal. […] The profiles are recorded at the center of the chamber, indicated by black bar in FIG. 12. […]

[1] = collagen I matrix, flow 0.5 μl/min

T1 sequence (P02453 162-1217 limits assumed): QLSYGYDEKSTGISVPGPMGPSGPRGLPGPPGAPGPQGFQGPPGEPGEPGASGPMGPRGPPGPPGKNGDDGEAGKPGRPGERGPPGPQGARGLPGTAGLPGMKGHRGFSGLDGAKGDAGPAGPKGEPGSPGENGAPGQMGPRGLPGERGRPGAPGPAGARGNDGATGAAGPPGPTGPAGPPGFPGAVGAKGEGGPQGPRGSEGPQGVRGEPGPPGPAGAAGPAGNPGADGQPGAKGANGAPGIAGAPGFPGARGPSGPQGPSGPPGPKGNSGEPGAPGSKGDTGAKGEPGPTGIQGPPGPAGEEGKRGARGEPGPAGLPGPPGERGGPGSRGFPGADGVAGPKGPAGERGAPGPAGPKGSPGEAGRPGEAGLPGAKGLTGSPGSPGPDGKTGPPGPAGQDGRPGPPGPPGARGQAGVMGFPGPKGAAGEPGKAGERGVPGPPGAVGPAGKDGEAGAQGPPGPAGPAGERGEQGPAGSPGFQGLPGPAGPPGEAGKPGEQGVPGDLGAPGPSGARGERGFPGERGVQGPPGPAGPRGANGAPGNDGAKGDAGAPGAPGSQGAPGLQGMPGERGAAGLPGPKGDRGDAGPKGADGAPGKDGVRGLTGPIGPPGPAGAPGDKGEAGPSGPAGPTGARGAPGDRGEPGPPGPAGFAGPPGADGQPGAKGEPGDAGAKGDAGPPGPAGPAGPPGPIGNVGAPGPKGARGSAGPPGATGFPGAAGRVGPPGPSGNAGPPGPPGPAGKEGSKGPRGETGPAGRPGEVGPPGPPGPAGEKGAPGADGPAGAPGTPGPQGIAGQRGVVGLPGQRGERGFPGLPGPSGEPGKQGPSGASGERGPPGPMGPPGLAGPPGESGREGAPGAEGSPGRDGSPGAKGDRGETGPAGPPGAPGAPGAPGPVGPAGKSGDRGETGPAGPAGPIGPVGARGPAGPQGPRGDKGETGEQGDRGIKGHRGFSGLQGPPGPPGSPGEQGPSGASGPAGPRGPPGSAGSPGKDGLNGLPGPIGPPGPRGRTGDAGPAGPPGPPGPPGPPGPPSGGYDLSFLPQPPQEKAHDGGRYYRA
T1 sequence (P02465 80-1117 limits assumed): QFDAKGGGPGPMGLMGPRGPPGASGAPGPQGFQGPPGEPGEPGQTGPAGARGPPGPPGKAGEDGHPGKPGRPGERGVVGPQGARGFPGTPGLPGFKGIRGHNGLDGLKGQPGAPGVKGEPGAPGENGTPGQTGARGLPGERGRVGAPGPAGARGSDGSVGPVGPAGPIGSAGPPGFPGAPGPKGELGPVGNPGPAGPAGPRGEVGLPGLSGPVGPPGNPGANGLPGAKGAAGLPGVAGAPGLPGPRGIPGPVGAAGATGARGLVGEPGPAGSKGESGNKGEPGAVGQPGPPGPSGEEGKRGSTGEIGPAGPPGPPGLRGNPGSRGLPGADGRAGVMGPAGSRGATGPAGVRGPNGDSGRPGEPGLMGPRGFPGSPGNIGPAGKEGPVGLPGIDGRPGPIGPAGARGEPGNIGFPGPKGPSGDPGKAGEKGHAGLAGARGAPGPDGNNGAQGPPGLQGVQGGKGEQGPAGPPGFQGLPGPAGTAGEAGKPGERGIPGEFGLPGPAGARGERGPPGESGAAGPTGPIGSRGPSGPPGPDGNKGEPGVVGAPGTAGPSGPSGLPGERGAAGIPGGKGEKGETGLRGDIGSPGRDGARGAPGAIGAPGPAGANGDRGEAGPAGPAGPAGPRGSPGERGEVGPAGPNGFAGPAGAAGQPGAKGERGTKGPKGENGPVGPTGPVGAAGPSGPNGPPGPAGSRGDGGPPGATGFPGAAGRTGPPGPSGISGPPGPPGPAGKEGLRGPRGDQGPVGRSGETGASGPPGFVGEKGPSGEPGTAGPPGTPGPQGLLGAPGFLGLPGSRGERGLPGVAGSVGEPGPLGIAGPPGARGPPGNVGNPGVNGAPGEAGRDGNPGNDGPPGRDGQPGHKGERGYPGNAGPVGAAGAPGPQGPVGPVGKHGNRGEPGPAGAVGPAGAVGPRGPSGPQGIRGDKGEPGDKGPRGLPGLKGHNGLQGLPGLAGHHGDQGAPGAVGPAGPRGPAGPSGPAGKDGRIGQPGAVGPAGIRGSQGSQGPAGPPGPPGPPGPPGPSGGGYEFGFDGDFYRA

affinity for collagen I (accumulation at the edge of the gel) (1.5 mg/ml collagen I matrix): little or no affinity for collagen I
time after which the gradient was stable [1]: approximately 6 hours
time to formation of a linear gradient after onset of flow [1]: ≤ 2 h
Substance: FITC-dextran

From patent US20110217771A1, “Fluidic Culture Device” (priority 2008, published 2011)
